In ChEMBL document CHEMBL1151740, “Structurally constrained hybrid derivatives containing octahydrobenzo[g or f]quinoline moieties for dopamine D2 and D3 receptors: binding characterization at D2/D3 receptors and elucidation of a pharmacophore model” (J Med Chem, 2008):

How the values were obtained:
[1] = molecular target: D(2) dopamine receptor (Rattus norvegicus, UniProt P61169); experiment: Displacement of [3H]Spiperone from rat dopamine D2L receptor expressed in HEK293 cells; type: cell-based
[2] = molecular target: D(3) dopamine receptor (Rattus norvegicus, UniProt P19020); experiment: Displacement of [3H]Spiperone from rat dopamine D3 receptor expressed in HEK293 cells; type: cell-based
Sequence of D(3) dopamine receptor (P19020 whole entry): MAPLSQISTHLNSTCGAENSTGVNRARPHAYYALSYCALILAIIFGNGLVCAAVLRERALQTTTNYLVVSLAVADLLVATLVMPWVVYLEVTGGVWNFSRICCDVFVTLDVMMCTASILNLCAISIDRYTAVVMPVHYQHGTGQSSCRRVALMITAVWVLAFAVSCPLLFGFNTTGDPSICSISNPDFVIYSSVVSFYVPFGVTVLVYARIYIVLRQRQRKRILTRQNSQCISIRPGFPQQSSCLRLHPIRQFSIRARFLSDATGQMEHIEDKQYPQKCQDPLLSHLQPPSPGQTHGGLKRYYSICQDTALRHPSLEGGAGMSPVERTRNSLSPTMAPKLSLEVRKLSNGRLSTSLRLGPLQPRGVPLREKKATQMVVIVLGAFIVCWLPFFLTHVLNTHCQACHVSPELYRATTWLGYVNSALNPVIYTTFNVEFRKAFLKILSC

Sequence of D(2) dopamine receptor (P61169 whole entry): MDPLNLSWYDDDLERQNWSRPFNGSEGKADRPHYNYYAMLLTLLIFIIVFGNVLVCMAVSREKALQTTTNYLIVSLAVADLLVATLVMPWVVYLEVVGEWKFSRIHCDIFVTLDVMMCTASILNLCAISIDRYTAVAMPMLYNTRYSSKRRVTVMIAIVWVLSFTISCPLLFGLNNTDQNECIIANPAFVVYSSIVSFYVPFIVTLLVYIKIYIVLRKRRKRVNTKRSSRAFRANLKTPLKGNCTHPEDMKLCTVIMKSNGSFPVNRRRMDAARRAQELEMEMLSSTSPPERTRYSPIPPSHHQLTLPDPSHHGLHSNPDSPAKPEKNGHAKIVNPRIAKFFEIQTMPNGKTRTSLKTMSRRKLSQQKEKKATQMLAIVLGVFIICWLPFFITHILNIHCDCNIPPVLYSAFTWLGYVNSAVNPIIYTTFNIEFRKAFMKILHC

Row | SMILES | Ki [1] | Ki [2]
1 | CCCN1CCC[C@H]2c3cccc(O)c3CC[C@@H]21 (relative stereo) | 347 nM | 96 nM
2 | Oc1cccc2c1CC[C@@H]1[C@@H]2CCCN1CCN1CCN(c2ccccc2)CC1 | 835 nM | 89.3 nM
3 | CCCN(CCN1CCN(c2ccccc2)CC1)[C@@H]1CCc2nc(N)sc2C1 | 1980 nM | 44 nM
4 | Oc1cccc2c1CC[C@H]1[C@H]2CCCN1CCN1CCN(c2ccccc2)CC1 | 23.6 nM | 4.95 nM
5 | CCCN1CCC[C@@H]2Cc3c(O)cccc3C[C@H]21 (racemic) | 2780 nM | 395 nM
6 | CCCN(CCN1CCN(c2ccc(-c3ccccc3)cc2)CC1)[C@H]1CCc2nc(N)sc2C1 | 234 nM | 0.925 nM

Next, values leading:

Row | Ki [1] | Ki [2] | SMILES
7 | 219 nM | 72.2 nM | Oc1ccc2c(c1)[C@@H]1CCCN(CCN3CCN(c4ccccc4)CC3)[C@H]1CC2
8 | 1710 nM | 736 nM | Oc1cccc2c1C[C@@H]1CCCN(CCN3CCN(c4ccccc4)CC3)[C@H]1C2 (racemic)
9 | 289 nM | 102 nM | Oc1ccc2c(c1)C[C@H]1[C@@H](CCCN1CCCCN1CCN(c3ccccc3)CC1)C2 (racemic)
10 | 148 nM | 187 nM | Oc1ccc2c(c1)C[C@@H]1[C@@H](CCCN1CCN1CCN(c3cccc(Cl)c3Cl)CC1)C2 (racemic)
11 | 809 nM | 38.6 nM | CCCN(CCN1CCN(c2ccccc2)CC1)[C@H]1CCc2ccc(O)cc2C1
12 | 338 nM | 256 nM | Oc1ccc2c(c1)C[C@H]1[C@@H](CCCN1CCN1CCN(c3cccc(Cl)c3Cl)CC1)C2 (racemic)
13 | 2520 nM | 473 nM | Oc1ccc2c(c1)C[C@H]1[C@@H](CCCN1CCN1CCN(c3ccccc3)CC1)C2 (racemic)
14 | 136 nM | 168 nM | Oc1cccc2c1C[C@@H]1CCCN(CCN3CCN(c4cccc(Cl)c4Cl)CC3)[C@H]1C2 (racemic)
15 | 243 nM | 4.15 nM | CCCN(CCN1CCN(c2ccccc2)CC1)[C@H]1CCc2nc(N)sc2C1
